{
  "source": "patent US20210205329A1",
  "about": "(The University of North Carolina at Chapel Hill, priority 2018, published 2021)",
  "key": {"[1]": {"system": "LPS-activated TLR4 signal", "test": "LPS-activated TLR4 signaling in RAW264.7 cells (immunoblotting)", "format": "cell-based, mouse", "conditions": "for effect on TLR4 expression: 0.5 μM or 1 μM, LPS-treated RAW264.7, 24 hrs; for inhibition of LPS-increased pTAK1, TRAF6, NFκB p50, phospho-NF-κB p65, pCREB, HMGB1, MCP-1 and TNFα (overall): 0.5-1.0 μM; for inhibition of LPS-increased pTAK1, TRAF6, NFκB p50, phospho-NF-κB p65, pCREB, HMGB1, MCP-1 and TNFα (overall) / inhibition at 0.5 µM / inhibition at 1 µM / inhibition of LPS-induced NFκB p50 / inhibition of the effect of LPS activation of TLR4 on MCP-1 / inhibition of the effect of LPS activation on TRAF6 / inhibition of the effect of LPS activation on pTAK1 / inhibition of the effect of LPS on HMGB1 / inhibition of the effect of LPS on TNFα / inhibition of the effect of LPS on pCREB / inhibition of the effect of LPS on phospho-NF-κB p65: RAW264.7; for inhibition at 0.5 µM / inhibition at 1 µM: Mus musculus; for inhibition at 0.5 µM / inhibition at 1 µM / inhibition of LPS-induced NFκB p50 / inhibition of the effect of LPS activation of TLR4 on MCP-1 / inhibition of the effect of LPS activation on TRAF6 / inhibition of the effect of LPS activation on pTAK1 / inhibition of the effect of LPS on HMGB1 / inhibition of the effect of LPS on TNFα / inhibition of the effect of LPS on pCREB / inhibition of the effect of LPS on phospho-NF-κB p65: LPS 1 μg/ml, 24 hrs", "protocol": "Cells and reagents. Mouse monocyte macrophage ceils (RAW264.7) that innately express the TLR4 receptor were obtained from American Type Culture Collection (Manassas, Va., USA). The cells were grown in Dulbecco's modified Eagle's medium (DMEM) (Gibco; Gaithersburg, Md., USA) supplemented with 10% fetal bovine serum (FBS, Gemini, West Sacramento, Calif., USA), 1% penicillin/streptomycin 100× (Gibco) at 37° C. in a 5% CO2 humidified atmosphere. The TLR4-specific ligand IPS was purchased from Sigma-Aldrich (St. Louis, Mo., USA) (Cat. #L3024) and added to the cultures (1 μg/ml) 24 hrs before cell collection.\nImmunoblotting. The assay used for RAW264.7 cell lysates and co-immunoprecipitation was as previously described (Aurelian et al, 2016; June et al, 2015; Liu et al, 2011). RAW246.7 cells grown on T-75 flasks (n=5 flasks/group) were lysed with radioimmunoprecipitation (RIPA) buffer [20 mM Tris-HCl (pH 7.4), […], 1% Nonidet P-40 (Sigma, St. Louis, Mo., USA), 0.1% SDS (sodium dodecyl sulfate), 0.5% sodium deoxycholate] supplemented with protease and phosphatase inhibitor cocktails (Sigma). The total protein was determined by the bicinchoninic acid assay (BCA, Thermo Fisher Scientific, Waltham, Mass., USA, Cat. #23228 and Cat. #1859078). The proteins (100 μg/lane) were resolved by SDS-polyacrylamide gel electrophoresis using freshly prepared 16×18 cm gels and transferred to polyvinylidene fluoride membranes (PVDF, Bio-Rad, Cat. #162-0177). Blots were blocked with 5% Blotting-Grade Blocker (Bio-Rad, Cat. #1706404; for non-phosphorylated primary antibodies) or 5% BSA (for phosphorylated primary antibodies) for 2 hrs at room temperature (RT) and exposed to primary antibody overnight (4° C.), followed by horseradish peroxidase-labeled secondary antibodies for 1 h (room temp), immunoreactive bands were visualized with the Plus-ECL kit reagents (Perkin Elmer, Waltham, Mass., USA, Cat. #NEL105001EA) followed by exposure to high-performance chemiluminescence film (Hyperfilm ECL; Amersham). Quantitation was by densitometric scanning with a Bio-Rad GS-700 imaging densitometer. Blots were stripped and re-probed with different primary antibodies 3-5 times. Each densitometric measurement was divided by the corresponding β-Actin densitometric measurement and the results [n=5/group] are expressed as the mean β-Actin-adjusted densitometric units±SEM.\nTo examine whether the neurosteroids inhibit the LPS-activated TLR4 signal, RAW264.7 cells were treated with IPS (1 μg/mi; 24 hrs) in the absence or presence of 3α,5α-THP (0.5 μM, 1 μM) or pregnenolone (0.5 μM, 1 μM), and ceil extracts were assayed for expression of MyD88-dependent pathway members, by immunoblotting with antibodies to pTAK1, monocyte chemotactic protein (MCP-1), TRAF6, TLR4, and transcription factor NFκB p50 (Chattopadhyay S, et al. (2014). Cytokine Growth Factor Rev 25(5): 533-541; Irie T, et al. (2000). FEBS Lett 467(2-3): […]; Lu Y C, et al. (2008). Cytokine 42(2): 145-151).\nBecause the neurosteroids had relatively little effect on NFκB p50, the possibility that inhibition of other transcription factors and proinflammatory responses may be involved was considered. RAW246.7 ceils were treated as described above and protein extracts were immunoblotted with antibodies to phospho-NF-κB p65, pCREB, the proinflammatory cytokine tumor necrosis factor alpha (TNFα), and high mobility group box-1 (HMGB1), a highly conserved non-histone chromosomal protein, the translocation of which from the intra- to extra-cellular environment is a critical event in inflammatory responses. Indeed, HMGB1 is currently recognized as a cytokine secreted from activated macrophages and other inflammatory cells during the innate immune response and if is believed to function as a TLR4 ligand. […]"}, "[2]": {"system": "CX3CL1", "test": "CX3CL1 (fracktalkine) ELISA in P rat NAc", "format": "in vivo", "conditions": "15 mg/kg IP, 45 min", "protocol": "Rats were administered VEH or 3α,5α-THP (15 mg/kg, IP) and sacrificed after 45 min. CX3CL1 was measured by ELISA (Raybiotech—ERC-CX3CL1-CL; Norcross, Ga., USA) as per manufacturer's instructions. (Two-way ANOVA: F (1,28)=13.63, P<0.001, Tukey's multiple comparisons test *P<0.05).\nELISA. Brain tissue micropunches were lysed with Cellyte MT and the extracts were assayed for protein content by the BCA procedure (Pierce) and for MCP-1 using the rat MCP-1 ELISA kit (Raybiotech—ERC-MCP-1-CL; Norcross, Ga., USA) or for fracktalkine using the rat fractalkine ELISA kit (Raybiotech—ERC-CX3CL1-CL; Norcross, Ga., USA) as per manufacturer's instructions.\nActivation of TLR4 signaling can result in the production of both pro-inflammatory and anti-inflammatory cytokines in P rat brain, but the factors that determine the outcome of TLR4 activation are unknown. […] 3α,5α-THP administration to naïve female and male P rats enhanced the expression of CX3CL1 by 90% in female rat NAc and 34% in male rat NAc. No sex difference in the effect of 3α,5α-THP was observed."}},
  "note": "Like-named read-outs stand apart in the source and are kept apart here.",
  "data": [
    {"smiles": "CC(=O)[C@H]1CC[C@H]2[C@@H]3CC[C@H]4C[C@H](O)CC[C@]4(C)[C@H]3CC[C@]12C", "note": "[3α,5α-THP, (3α,5α)3-hydroxypregnan-20-one]", "values": [
      {"measurement": "effect on TLR4 expression", "setting": "[1]", "result": "did not affect"},
      {"measurement": "inhibition of LPS-increased pTAK1, TRAF6, NFκB p50, phospho-NF-κB p65, pCREB, HMGB1, MCP-1 and TNFα (overall)", "setting": "[1]", "result": "~80", "unit": "%"},
      {"measurement": "inhibition at 0.5 µM", "setting": "[1]; 0.5 μM, read-out: inhibition of LPS-induced NFκB p50", "result": "19.8 ± 7.9", "unit": "%"},
      {"measurement": "inhibition at 0.5 µM", "setting": "[1]; 0.5 μM, read-out: inhibition of the effect of LPS activation of TLR4 on MCP-1", "result": "81.5 ± 3.8", "unit": "%"},
      {"measurement": "inhibition at 0.5 µM", "setting": "[1]; 0.5 μM, read-out: inhibition of the effect of LPS activation on TRAF6", "result": "54.5 ± 5.5", "unit": "%"},
      {"measurement": "inhibition at 0.5 µM", "setting": "[1]; 0.5 μM, read-out: inhibition of the effect of LPS activation on pTAK1", "result": "37.8 ± 7.7", "unit": "%"},
      {"measurement": "inhibition at 0.5 µM", "setting": "[1]; 0.5 μM, read-out: inhibition of the effect of LPS on HMGB1", "result": "88.9 ± 11", "unit": "%"},
      {"measurement": "inhibition at 0.5 µM", "setting": "[1]; 0.5 μM, read-out: inhibition of the effect of LPS on TNFα", "result": "77.8 ± 7.3", "unit": "%"},
      {"measurement": "inhibition at 0.5 µM", "setting": "[1]; 0.5 μM, read-out: inhibition of the effect of LPS on pCREB", "result": "97.2 ± 1.9", "unit": "%"},
      {"measurement": "inhibition at 0.5 µM", "setting": "[1]; 0.5 μM, read-out: inhibition of the effect of LPS on phospho-NF-κB p65", "result": "90.1 ± 8.5", "unit": "%"},
      {"measurement": "inhibition at 1 µM", "setting": "[1]; 1.0 μM, read-out: inhibition of LPS-induced NFκB p50", "result": "38.3 ± 7.3", "unit": "%"},
      {"measurement": "inhibition at 1 µM", "setting": "[1]; 1.0 μM, read-out: inhibition of the effect of LPS activation of TLR4 on MCP-1", "result": "85.2 ± 4.5", "unit": "%"},
      {"measurement": "inhibition at 1 µM", "setting": "[1]; 1.0 μM, read-out: inhibition of the effect of LPS activation on TRAF6", "result": "55.3 ± 2.6", "unit": "%"},
      {"measurement": "inhibition at 1 µM", "setting": "[1]; 1.0 μM, read-out: inhibition of the effect of LPS activation on pTAK1", "result": "71.7 ± 3.6", "unit": "%"},
      {"measurement": "inhibition at 1 µM", "setting": "[1]; 1.0 μM, read-out: inhibition of the effect of LPS on HMGB1", "result": "58.6 ± 5.5", "unit": "%"},
      {"measurement": "inhibition at 1 µM", "setting": "[1]; 1.0 μM, read-out: inhibition of the effect of LPS on TNFα", "result": "70.9 ± 3.5", "unit": "%"},
      {"measurement": "inhibition at 1 µM", "setting": "[1]; 1.0 μM, read-out: inhibition of the effect of LPS on pCREB", "result": "94.8 ± 3.4", "unit": "%"},
      {"measurement": "inhibition at 1 µM", "setting": "[1]; 1.0 μM, read-out: inhibition of the effect of LPS on phospho-NF-κB p65", "result": "88.9 ± 10.8", "unit": "%"},
      {"measurement": "enhancement of CX3CL1 expression in NAc", "setting": "[2]; naïve female P rats", "result": 90, "unit": "%"},
      {"measurement": "enhancement of CX3CL1 expression in NAc", "setting": "[2]; naïve male P rats", "result": 34, "unit": "%"}
    ]},
    {"smiles": "CC(=O)[C@H]1CC[C@H]2[C@@H]3CC=C4C[C@@H](O)CC[C@]4(C)[C@H]3CC[C@]12C", "note": "[pregnenolone]", "values": [
      {"measurement": "effect on TLR4 expression", "setting": "[1]", "result": "did not affect"},
      {"measurement": "inhibition of LPS-induced NFκB p50", "setting": "[1]; 0.5 μM", "result": "25.3±7.4", "unit": "%"},
      {"measurement": "inhibition of the effect of LPS activation of TLR4 on MCP-1", "setting": "[1]; 0.5 μM", "result": "77.3±7.3", "unit": "%"},
      {"measurement": "inhibition of the effect of LPS activation on TRAF6", "setting": "[1]; 0.5 μM", "result": "73.7±1.3", "unit": "%"},
      {"measurement": "inhibition of the effect of LPS activation on pTAK1", "setting": "[1]; 0.5 μM", "result": "76.2±2.0", "unit": "%"},
      {"measurement": "inhibition of the effect of LPS on HMGB1", "setting": "[1]; 0.5 μM", "result": "52.0±9.8", "unit": "%"},
      {"measurement": "inhibition of the effect of LPS on TNFα", "setting": "[1]; 0.5 μM", "result": "61.7±3.6", "unit": "%"},
      {"measurement": "inhibition of the effect of LPS on pCREB", "setting": "[1]; 0.5 μM", "result": "84.8±9.9", "unit": "%"},
      {"measurement": "inhibition of the effect of LPS on phospho-NF-κB p65", "setting": "[1]; 0.5 μM", "result": "86.7±7.3", "unit": "%"},
      {"measurement": "inhibition of LPS-induced NFκB p50", "setting": "[1]; 1.0 μM", "result": "28.8±6.7", "unit": "%"},
      {"measurement": "inhibition of the effect of LPS activation of TLR4 on MCP-1", "setting": "[1]; 1.0 μM", "result": "85.8±4.4", "unit": "%"},
      {"measurement": "inhibition of the effect of LPS activation on TRAF6", "setting": "[1]; 1.0 μM", "result": "88.5±6.8", "unit": "%"},
      {"measurement": "inhibition of the effect of LPS activation on pTAK1", "setting": "[1]; 1.0 μM", "result": "95.2±2.5", "unit": "%"},
      {"measurement": "inhibition of the effect of LPS on HMGB1", "setting": "[1]; 1.0 μM", "result": "57.5±12.8", "unit": "%"},
      {"measurement": "inhibition of the effect of LPS on TNFα", "setting": "[1]; 1.0 μM", "result": "65.1±7.7", "unit": "%"},
      {"measurement": "inhibition of the effect of LPS on pCREB", "setting": "[1]; 1.0 μM", "result": "83.7±8.9", "unit": "%"},
      {"measurement": "inhibition of the effect of LPS on phospho-NF-κB p65", "setting": "[1]; 1.0 μM", "result": "88.1±5.5", "unit": "%"},
      {"measurement": "inhibition of LPS-increased pTAK1, TRAF6, NFκB p50, phospho-NF-κB p65, pCREB, HMGB1, MCP-1 and TNFα (overall)", "setting": "[1]", "result": "~80", "unit": "%"}
    ]}
  ]
}
